Nine compounds from patent publication US20230183243A1, “HETEROARYL DERIVATIVES AND PHARMACEUTICAL COMPOSITION COMPRISING SAME AS ACTIVE INGREDIENT” (VORONOI INC., priority 2019, published 2023) can be followed below.

In one experiment the test system is A549. In words: Cell proliferation inhibition, carcinomas other than TNBC. Format: cell-based. The protocol: (§1) To check an ability to inhibit the growth of (MDA-MB-231) cells in two triple-negative breast cancer cell lines, a test was performed, as follows. Cells were seeded in 180 μL of a culture broth at a density of 2,000 to 3,000 cells/well in a white clear bottom 96-well plate (Corning) according to the growth ability of each cell, and then cultured for 24 hours under conditions of 5% CO2 and 37° C. Thereafter, the compound was prepared by diluting a 10 mM stock solution three-fold with 100% DMSO at a total of 12 concentrations so that a peak concentration of the compound was in a range of 10 mM to 0.05 μM, and the diluted compound was then diluted in each cell culture medium so that a final concentration of the compound was in a range of 100 μM to 0.5 nM. 20 μL of a diluted solution diluted with a medium was added to the cell solution in which cells were seeded in the 96-well plate on the previous day so that a final concentration of the diluted solution was in a range of 10 μM to 0.05 nM. Each of the cells was cultured for 5 days. To check cell viability, a mixture provided in a CellTiter-Glo® Luminescent Cell Viability Assay Kit (Promega) was added to each of the cultured cell media, and cultured for another 10 minutes under a condition of 37° C. Then, a degree of luminescence (fluorescence) was measured. A degree of inhibition of the cell growth according to the treatment concentration of each of the compounds was calculated based on the fluorescence of the solvent control cells which were not treated with the compound. In this case, the concentration of each of the compounds inhibiting 50% of the cell growth was determined to be a GI50 (nM) value, and calculated using Prism (Version 7.01; GraphPad) software.
(§2) Next, the activities of the Example compounds against various types of carcinomas other than the TNBC were evaluated in a similar manner as described above. In the following table, the following active value range (GI50 (nM)) was used to evaluate cell proliferation inhibitory activity.

For a further experiment, the system named is BxPC3. Described as above. Format: cell-based. Here is the method:
as §1, §2

A further experiment deals with DU145. The description is as above. It is filed as cell-based. The protocol: as §1, §2
In another experiment the test system is HCT116. Described as above. It is filed as cell-based. The protocol: as §1, §2
The subject of another experiment is MDA-MB-231 cells. The experiment can be described thus: Inhibition of proliferation of triple-negative breast cancer cells, CellTiter-Glo. To be noted: Homo sapiens, 120 h; MDA-MB-231, cultured for 5 days. It is filed as cell-based. The method, boiled down: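 MDA-MB-231 cells pre-cultured 24 h (5% CO2, 37 °C), then exposed to compound for 5 days at 12 three-fold dilutions, final 10 μM to 0.05 nM. Viability read by CellTiter-Glo luminescence after 10 min at 37 °C; growth inhibition calculated relative to untreated solvent-control cells.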

Another experiment concerns the target T1, TTK (Homo sapiens, UniProt P33981).
T1 sequence (P33981 1-857): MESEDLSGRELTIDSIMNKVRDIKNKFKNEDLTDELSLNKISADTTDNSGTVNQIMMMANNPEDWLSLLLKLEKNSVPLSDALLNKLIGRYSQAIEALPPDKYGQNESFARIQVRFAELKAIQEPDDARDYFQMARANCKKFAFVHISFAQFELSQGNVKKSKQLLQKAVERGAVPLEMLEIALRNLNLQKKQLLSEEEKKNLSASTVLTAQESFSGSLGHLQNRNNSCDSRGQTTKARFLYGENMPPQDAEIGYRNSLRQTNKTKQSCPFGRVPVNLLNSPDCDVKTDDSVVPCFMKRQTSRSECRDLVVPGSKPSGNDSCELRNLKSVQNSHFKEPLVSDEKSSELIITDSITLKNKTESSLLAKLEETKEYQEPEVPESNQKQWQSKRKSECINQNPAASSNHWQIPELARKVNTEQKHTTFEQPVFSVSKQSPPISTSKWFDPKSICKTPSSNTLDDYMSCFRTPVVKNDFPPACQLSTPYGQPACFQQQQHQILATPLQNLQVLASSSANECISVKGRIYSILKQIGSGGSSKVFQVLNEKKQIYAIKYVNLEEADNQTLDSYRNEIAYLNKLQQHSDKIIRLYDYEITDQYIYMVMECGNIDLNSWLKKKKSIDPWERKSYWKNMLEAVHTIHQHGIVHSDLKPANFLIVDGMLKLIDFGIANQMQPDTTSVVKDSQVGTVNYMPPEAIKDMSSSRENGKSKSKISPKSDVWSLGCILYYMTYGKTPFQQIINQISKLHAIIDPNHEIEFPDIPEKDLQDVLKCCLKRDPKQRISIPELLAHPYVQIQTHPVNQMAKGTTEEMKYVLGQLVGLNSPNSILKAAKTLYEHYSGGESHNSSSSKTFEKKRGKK
In words: TTK enzyme activity, ADP-Glo kinase assay. Format: biochemical. More on the design: purchased SignalChem T20-10G. Particulars: purified human TTK, ATP 10 μM, 25° C., 2 hours. The gist of the method:
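ADP-Glo read-out; percent inhibition at each compound concentration was relative to the solvent-only control. The reactions contained 25 ng enzyme, 0.2 μg substrate and 10 μM ATP in 40 mM Tris-HCl pH 7.4 with 20 mM MgCl2, 0.5 mg/mL BSA and 50 μM DTT, and ran 2 h at 25 °C.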

The subject of the next experiment is SHP-77. The experiment can be described thus: Inhibition of proliferation of small cell lung cancer cells, CellTiter-Glo. Particulars: Homo sapiens, SHP77, 120 h; SHP-77, cultured for 5 days. Format: cell-based. The gist of the method:
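SHP-77 cells at 2,000–3,000 cells/well, cultured 24 h at 37° C, 5% CO2, then given 12 threefold compound dilutions, final 10 μM to 0.05 nM, for 5 days. Viability by CellTiter-Glo luminescence relative to solvent control. GI50 from concentration–response.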

Like-named read-outs stand apart in the source and are kept apart here.

Consider `COc1cc(N2CCCC2=O)ccc1Nc1nc(NC2CCCC2)c2cc[nH]c2n1` [Example 47, 1-(4-((4-(cyclopentylamino)-7H-pyrrolo[2,3-d]pyrimidin-2-yl)amino)-3-methoxyphenyl) pyrrolidin-2-one], for which the concentration for 50% growth inhibition (GI50) was < 100 nM with A549 (Homo sapiens); < 100 nM with BxPC3 (Homo sapiens, BXPC-3); < 100 nM in the experiment on DU145 (Homo sapiens, DU-145); < 100 nM with HCT116 (Homo sapiens, HCT-116).

Consider `COc1cc(N2CCCC2=O)ccc1Nc1nc(NC2CCCCC2)c2cc[nH]c2n1` [Example 48], for which the GI50 in the experiment on A549, in the experiment on BxPC3 (BxPC3), in the experiment with DU145 (DU145) and in the experiment with HCT116 (HCT116) was < 100 nM throughout.

Take `COc1cc(N2CCCC2=O)ccc1Nc1nc(NC2CCCC2)c2c(C(F)(F)F)c[nH]c2n1` [Example 52]: the concentration for 50% growth inhibition (GI50) was 100 to 1000 nM in the experiment with A549 (Homo sapiens); 100 to 1000 nM in the experiment with BxPC3 (Homo sapiens, BXPC-3); 100 to 1000 nM with DU145 (Homo sapiens, DU-145); 100 to 1000 nM with HCT116 (Homo sapiens, HCT-116).

For `COc1cc(N2CCCC2=O)ccc1Nc1nc(NC2CCCCC2)c2c(C(F)(F)F)c[nH]c2n1` [Example 53, 1-(4-((4-(cyclohexylamino)-5-(trifluoromethy1)-7H-pyrrolo[2,3-d]pyrimidin-2-yl)amino)-3-methoxyphenyl) pyrrolidin-2-one], the GI50 was in the range of 100 to 1000 nM in the experiment with MDA-MB-231 cells; 100 to 1000 nM in the experiment with A549 (Homo sapiens); 100 to 1000 nM in the experiment on BxPC3 (Homo sapiens, BXPC-3); 100 to 1000 nM in the experiment on DU145 (Homo sapiens, DU-145); 100 to 1000 nM in the experiment on HCT116 (Homo sapiens, HCT-116). Besides, the 50% inhibitory concentration (IC50) against TTK is < 50 nM.

With `CNc1nc(Nc2ccc(N3CCCC3=O)cc2OC)nc2[nH]cc(C#N)c12` [Example 54, 2-((2-methoxy-4-(2-oxopyrrolidin-1-yl)phenyl)amino)-4-(methylamino)-7H-pyrrolo[2,3-d] pyrimidine-5-carbonitrile], the GI50 with MDA-MB-231 cells fell in the range of 100 to 1000 nM; in the experiment on A549 (Homo sapiens) it was 100 to 1000 nM; with BxPC3 (Homo sapiens, BXPC-3) it was 100 to 1000 nM; with DU145 (Homo sapiens, DU-145), 100 to 1000 nM; in the experiment with HCT116 (Homo sapiens, HCT-116), 100 to 1000 nM. For the same compound, the IC50 at TTK lay within 50 to 200 nM.

Consider `COc1cc(N2CCCC2=O)ccc1Nc1nc(NC2CCCC2)c2c(C#N)c[nH]c2n1` [Example 55, 4-(cyclopentylamino)-2-((2-methoxy-4-(2-oxopyrrolidin-1-yl)phenyl)amino)-7H-pyrrolo[2,3-d] pyrimidine-5-carbonitrile], for which the GI50 was < 100 nM in the experiment on MDA-MB-231 cells; < 100 nM in the experiment with A549 (Homo sapiens); < 100 nM in the experiment with BxPC3 (Homo sapiens, BXPC-3); < 100 nM in the experiment on DU145 (Homo sapiens, DU-145); < 100 nM with HCT116 (Homo sapiens, HCT-116). Besides, the concentration for half-maximal inhibition (IC50) against TTK was < 50 nM.

Consider `COc1cc(N2CCCC2=O)ccc1Nc1nc(NC2CCCCC2)c2c(C#N)c[nH]c2n1` [Example 56, 4-(cyclohexylamino)-2-((2-methoxy-4-(2-oxopyrrolidin-1-yl)phenyl)amino)-7H-pyrrolo[2,3-d] pyrimidine-5-carbonitrile], for which the GI50 in the experiment with MDA-MB-231 cells was < 100 nM; in the experiment with A549 (Homo sapiens) it was < 100 nM; with BxPC3 (Homo sapiens, BXPC-3) it was < 100 nM; in the experiment with DU145 (Homo sapiens, DU-145) it was < 100 nM; with HCT116 (Homo sapiens, HCT-116) it was < 100 nM; in the experiment with SHP-77 it was < 100 nM. In addition, the concentration for half-maximal inhibition (IC50) at TTK is < 50 nM.

In the case of `COc1cc(N2CCCC2=O)ccc1Nc1cc(NC2CCCCC2)c2c(C(F)(F)F)c[nH]c2n1` [Example 62, 1-(4-((4-(cyclohexylamino)-3-(trifluoromethyl)-1H-pyrrolo[2,3-b]pyridin-6-yl)amino)-3-methoxyphenyl) pyrrolidin-2-one], the GI50 was 100 to 1000 nM with A549 (Homo sapiens); 100 to 1000 nM in the experiment on BxPC3 (Homo sapiens, BXPC-3); 100 to 1000 nM with DU145 (Homo sapiens, DU-145); 100 to 1000 nM with HCT116 (Homo sapiens, HCT-116).

With `COc1cc(N2CCCC2=O)ccc1Nc1cc(NC2CCCC2)c2c(C#N)c[nH]c2n1` [Example 63, 4-(cyclopentylamino)-6-((2-methoxy-4-(2-oxopyrrolidin-1-yl)phenyl)amino)-1H-pyrrolo[2,3-b] pyridine-3-carbonitrile], the concentration for 50% growth inhibition (GI50) in the experiment on MDA-MB-231 cells is 100 to 1000 nM; in the experiment with A549 (Homo sapiens) it was < 100 nM; in the experiment with BxPC3 (Homo sapiens, BXPC-3) it was < 100 nM; in the experiment on DU145 (Homo sapiens, DU-145), < 100 nM; with HCT116 (Homo sapiens, HCT-116), < 100 nM. For the same compound, on TTK, the IC50 is < 50 nM.
